# Measurements published in US20260248773A1, “POTASSIUM CHANNEL BLOCKERS OR DERIVATIVES THEREOF FOR PREVENTING, ALLEVIATING, AND/OR TREATING TISSUE DYSFUNCTION CAUSED BY TOXIC INSULTS” (priority 2022, published 2026).
# Tests used:
# [1] = tested on: E0771 murine breast cancer cell line; experiment: 4-AP co-applied with paclitaxel to cancer cells in vitro (Example 10); type: cell-based
# Experimental: To investigate the effects of 4-AP treatment on cancer cells, 4-AP was co-applied with either paclitaxel or cisplatin in dose response curves extending over a >20-fold range to the widely studied E0771 murine breast cancer cell line and the A549 human lung cancer cell line. Cells were exposed to paclitaxel or cisplatin for 5 days in the presence or absence of 1 mM 4-AP. This concentration of 4-AP is typically used for in vitro studies, and greatly exceeds achievable concentrations in vivo. This higher dose would increase the likelihood of detecting protective activity.
# [2] = tested on: Guillain-Barré Syndrome; details: cited from earlier work
# [3] = tested on: kidney; experiment: Kidney histology (H&E) after PTX with or without 4-AP (Example 8); type: in vivo, mice; details: PTX day 0
# Experimental: To examine effects on the kidney histological studies were conducted on this tissue. Mice received PTX on day 0 of the experiment, and half of those mice also were injected with 4-AP at this time, and every day thereafter, at a dosage of 2 mg/kg. Mice not receiving 4-AP were injected with saline to control for any stress induced by daily injections. Experimental groups also included mice receiving no PTX treatment, and treated only with daily injections of saline. Mice were sacrificed after 1 week. Mice were perfused with 4% paraformaldehyde and kidneys were sectioned and stained with haematoxylin & eosin (H&E).
# [4] = tested on: PTX-induced CIPN; experiment: Repetitive PTX exposure, concurrent low-dose 4-AP weeks 1-12: function and nerve ultrastructure (Examples 3 and 4); type: in vivo, mice
# Experimental: To determine whether 4-AP also conferred protection against developing CIPN when animals were repetitively exposed to PTX, 16 week old C7BL/6 female mice were given four cycles of PTX treatment at doses of 35 mg/kg PTX (i.p.). Animals were separated into control (saline, i.p.) or treatment group treated with a dose of 4AP 25% of that used in Examples 1 and 2 (i.e., 0.5 mg/kg 4-AP daily, i.p.).
# To determine whether 4-AP prevented chemotherapy-induced structural damage even when chemotherapy was applied multiple times, ultrastructural analyses of tissue from mice treated with 35 mg/kg PTX, every 3 weeks, for 4 cycles of treatment was conducted. A low dose of 4-AP that was only 25% of the dose used in Examples 1 and 2 was used, which was applied at 0.5 mg/kg daily instead of 2 mg/kg daily.
# [5] = four cycles 35 mg/kg PTX, 0.5 mg/kg 4-AP daily
# [6] = four cycles 35 mg/kg PTX, 0.5 mg/kg 4-AP daily i.p.
smiles,measurement,setting,value
"Nc1ccncc1 [4-AP, 4-aminopyridine]",protection of cancer cells from PTX,"[1]; 5 days exposure to PTX in vitro, concurrent 4-AP (1 mM)",did not protect
same,sensitivity of cancer cells to paclitaxel,"[1]; 5 days, 1 mM 4-AP",appears to even increase sensitivity to low doses of paclitaxel
same,"pain scores (McGill Pain Inventory questionnaire, visual analog scale)","[2]; 4-AP vs placebo, p=0.92",no difference
same,nerve conduction velocity,[2]; Guillain-Barré patients,no clinically significant changes
same,"proximal and distal tubules, H&E staining","[3]; 4-AP 2 mg/kg daily, sacrificed after 1 week",normal proximal and distal tubules
same,histological kidney damage caused by PTX exposure,[3]; 4-AP co-treatment,prevented multiple aspects of histological kidney damage
same,G ratio (axon:myelin area),[4]; [5],better myelinated than the control (PTX+Saline) group
same,axon circularity,[4]; [5],more regularly structured than the control group
same,frequency of degenerating myelin profiles,[4]; [5],decreased frequency of degenerating myelin profiles
same,"gait abnormalities, Catwalk analyses",[4]; [6],ameliorated PTX-induced gait abnormalities
same,"jumping behavior, cold-plate stimulus",[4]; [6],"highly significant at Weeks 6, 9 and 12"
same,"nerve conduction (latency, amplitude, velocity)",[4]; [6],ameliorated PTX-induced abnormalities in nerve conduction
same,"pawlifts, cold-plate stimulus",[4]; [6],trended significant at Weeks 6 and 9 and were highly significant at Week 12
same,"mechanical hypersensitivity, von Frey filament testing","[4]; four cycles 35 mg/kg PTX, 0.5 mg/kg 4-AP daily i.p. weeks 1-12",ameliorated PTX-induced mechanical hypersensitivity
same,mitochondrial health by mitochondrial structure,"[4]; repetitive exposure to chemotherapy, 0.5 mg/kg 4-AP daily",improves mitochondrial health
